One test has as its target T1, SSTR2 (Rattus norvegicus, UniProt P30680).
T1 construct: expressed in transfected cells
The test can be described thus: Competitive binding of 125I labeled S-14 to membranes of cells expressing SSTR2. The following applies: 125I labeled S-14, membranes. The method, then: Membrane preparation. Tissue culture cell lines expressing transfected CDNA clones of SSTR2, and SSTR5 are used as a source of plasma membranes which specifically bind ^125 I labeled S-14 (Amersham, Arlington Heights, Ill.). Cells are removed from culture dishes by incubation at 4° C. for 5 minutes in PBS containing 1 mM EDTA, spun down (2,000 rpm, 5') and resuspended in 15 mL homogenization buffer (1 mM sodium bicarbonate pH 7.2, 1 mM EDTA, 1 mM EGTA and the following protease inhibitors: leupeptin and aprotenin at 5 μg/mL and benzamidine and bacitracin at 100 μg/mL). Cells are given 20 strokes with a Dounce homogenizer on ice and spun at 2000 rpm for 10 minutes. Membranes are isolated from the supernatant by centrifugation at 17,000 rpm for 30 minutes. The membrane pellet is washed once in 15 mL homogenization buffer and once in storage buffer (25 mM Tris pH 7.4 containing protease inhibitors). Each wash is followed by centrifugation at 17,000 rpm for 30 minutes. The membrane pellet is resuspended in storage buffer, measured for protein concentration (BioRad, Calif.) and stored at -80° C.
Binding assay. All reagents for the binding assay are prepared in binding buffer (50 mM Hepes pH 7.4, 2 mM EGTA, 5 mM MgCl2 and protease inhibitors). Membranes are thawed on ice and diluted to […] protein/50 μL binding buffer. ^125 I labeled S-14 (Amersham, Arlington Heights, Ill.) is diluted to 80-100,000 cpm/50 μL in binding buffer. Competitors, either test peptides or standards, are prepared at 4× final concentrations in binding buffer, as are wheat germ agglutinin (WGA)-linked PVC beads that contain solid scintillant (SPA beads, Amersham, Arlington Heights, Ill.). The binding assay is initiated by mixing 50 μL each of membranes, radiolabelled S-14, competitors and SPA beads in each well of a 96-well tray. The assay is incubated by shaking for 10-30 minutes at room temperature and then placing at 4° C. overnight. Bound radioligand is determined by counting in a Microbeta Liquid Scintillation counter (Wallac, Gaithersburg, Md.). Binding data is plotted and IC50 and Ki values are calculated for test compounds using Prism software (Graphpad Software Inc., San Diego, Calif.) and are shown in Table V. Binding is expressed as Ki, μM.

Test [1] has as its target T2, S. cerevisiae (yeast) cells expressing SRIF receptors (Rattus norvegicus, UniProt P30680).
T2 construct: expressed in transfected cells; host or cells: S. cerevisiae strain LY364
The test can be described thus: Yeast bioassay for SRIF antagonist activity (LY364 cells growing in response to SRIF, zone of growth inhibition). The following applies: Sample type 4th iteration; 10 μL of 5 mg/mL on disk, SRIF 10 nM, read after 3 days. The format is cell-based. The source says: SRIF antagonist assay using S. cerevisiae (yeast) cells expressing SRIF receptors that grow in response to SRIF
Agar plates containing LY364 cells that are growing in the presence of added SRIF are the basis for a sensitive SRIF antagonist assay, whereby zones of growth inhibition result from the addition of SRIF antagonists to the surface of the agar plate (see L. A. Price, et al., Molecular and Cellular Biology, 15, 6188-6195, 1995, incorporated herein by reference).
In this assay, LY364 cells are grown overnight in 2 mL of synthetic complete(SC) medium (3.4 g/L YNB without amino acids and ammonium sulfate, 10 g/L ammonium sulfate and 1.4 g/L CSM-ura-trp) with glucose (2%) and without uracil and tryptophan. These cells are washed and cultured for 4 to 8 hours in 5 mL of SC medium with lactate (3%) and without uracil and tryptophan, and finally grown overnight in 5 mL of SC medium with galactose (2%) and without uracil and tryptophan. Molten (50° C.) SC agar medium with galactose (2%) and without uracil, tryptophan and histidine is adjusted to pH 6.8 with KOH, mixed with 2×10^4 cells/mL and SRIF (S-14, 10 nM) and poured into square (20×20 cm) petri dishes. Sterile filter disks are placed on the surface of the agar, and saturated with 10 μL of water or DMSO containing 5 mg/mL test peptides. After three days, the plates display a uniform cloudy background of LY264 cells growing in response to the added SRIF. […] This zone is quantified by measuring its diameter (mm), which varies according to the potency of the SRIF antagonist. Those peptides or mixtures of peptides displaying the largest zones of inhibition are further characterized.
Values are compared among samples in the same experiment, as the degree of yeast growth varies somewhat from assay to assay. For the first five sample types, in which progressively less complex mixtures of peptides are found, this assay is the primary determining factor in choosing which samples form the basis of subsequent syntheses.
Plates are read after 3 days. Samples shown in Table I in bold type are chosen for further synthesis. In Table I, all amino acids are D-amino acids and dashes represent undefined amino acid residues.

In another test the test system is Male Sprague-Dawley rats. The test can be described thus: Serum growth hormone levels in anaesthetized rats given GRF with and without peptide 1. In kind it is in vivo, rat. The method, then:
Evaluation in anaesthetized rats. Male Sprague-Dawley rats are anaesthetized with Sagatal and fitted so as to allow efficient intravenous treatment with control and test compounds as well as frequent blood sampling. Blood samples are tested for growth hormone (GH) levels by radioimmunoassay. Thirty minutes after the initiation of blood sampling, rats are given 5 μg, 25 μg or 50 μg of peptide 1.
Peptide 1 is tested in combination with growth hormone releasing factor (GRF), to investigate whether said peptide may be mimicking the action of GRF. Anaesthetized rats are given GRF (1 μg) alone and in combination with peptide 1 (50 μg).

Square brackets hold non-standard residues; d marks the D form. Peptide text beside a SMILES is read from it.

T2 sequence (P30680 whole entry): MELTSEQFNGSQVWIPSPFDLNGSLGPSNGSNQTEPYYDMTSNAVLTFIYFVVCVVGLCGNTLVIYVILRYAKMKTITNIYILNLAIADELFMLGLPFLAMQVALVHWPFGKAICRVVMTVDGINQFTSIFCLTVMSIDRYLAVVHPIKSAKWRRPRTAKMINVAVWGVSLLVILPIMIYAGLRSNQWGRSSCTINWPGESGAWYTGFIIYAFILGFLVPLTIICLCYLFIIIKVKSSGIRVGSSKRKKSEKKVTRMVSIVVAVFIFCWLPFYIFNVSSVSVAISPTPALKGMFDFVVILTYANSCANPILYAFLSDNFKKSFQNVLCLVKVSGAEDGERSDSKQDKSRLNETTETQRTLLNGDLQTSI
T1 sequence (P30680 whole entry): as above

For orientation: Ki means a dissociation constant, usually derived from enzyme kinetics or from competition with a known ligand. Low readings indicate tighter binding, high ones weaker binding. Take `CC[C@@H](C)[C@@H](NC(=O)[C@@H](CCCNC(=N)N)NC(=O)[C@@H](Cc1c[nH]c2ccccc12)NC(=O)[C@@H](Cc1ccccc1)NC(=O)[C@@H](Cc1c[nH]cn1)NC(C)=O)C(=O)N[C@H](Cc1ccccc1)C(N)=O` [Peptide 30, h-f-w-r-i-f] (Ac-[dH][dF][dW][dR][dI][dF]-NH2): at SSTR2, the Ki was found to be 2.8 µM.
Compound `CC[C@@H](C)[C@@H](NC(C)=O)C(=O)N[C@H](CCCNC(=N)N)C(=O)N[C@H](Cc1c[nH]c2ccccc12)C(=O)N[C@H](Cc1ccccc1)C(=O)N[C@H](Cc1c[nH]cn1)C(=O)N[C@H](Cc1ccccc1)C(N)=O` [Peptide 33, i-r-w-f-h-f] (Ac-[dI][dR][dW][dF][dH][dF]-NH2) had a Ki at SSTR2 of 2.8 µM.
Still for that read-out and setting: the figure for `CC[C@@H](C)[C@H]1NC(=O)[C@@H](Cc2ccccc2)NC(=O)[C@@H](Cc2c[nH]cn2)NC(=O)[C@@H](Cc2ccccc2)NC(=O)[C@@H](Cc2c[nH]c3ccccc23)NC(=O)[C@@H](CCCNC(=N)N)NC1=O` [#STR6##] (cyclo([dH][dF][dI][dR][dW][dF])) is 0.14 µM; for `CC[C@@H](C)[C@@H](NC(=O)[C@@H](Cc1ccccc1)NC(=O)[C@@H](Cc1c[nH]cn1)NC(=O)[C@@H](Cc1ccccc1)NC(=O)[C@@H](Cc1c[nH]c2ccccc12)NC(C)=O)C(=O)N[C@H](CCCNC(=N)N)C(N)=O` [Peptide 32, w-f-h-f-i-r] (Ac-[dW][dF][dH][dF][dI][dR]-NH2) it is 37.2 µM.
As to `CC[C@@H](C)[C@@H](NC(=O)[C@@H](Cc1ccccc1)NC(=O)[C@@H](Cc1c[nH]cn1)NC(C)=O)C(=O)N[C@H](CCCNC(=N)N)C(=O)N[C@H](Cc1c[nH]c2ccccc12)C(=O)N[C@H](Cc1c[nH]c2ccccc12)C(N)=O` [His Phe Ile Arg Trp Trp] (Ac-[dH][dF][dI][dR][dW][dW]-NH2), the “Inhibition Zone” value in test [1] is given as 16 mm.
Regarding growth hormone releasing factor [GRF], the SGH was found to be 67.1 ng/mL in the test on Male Sprague-Dawley rats (GRF 1 μg alone or with peptide 1 50 μg at 30 min, sample 35 min); 103.5 ng/mL with Male Sprague-Dawley rats (GRF 1 μg alone or with peptide 1 50 μg at 30 min, sample 40 min); 53.1 ng/mL with Male Sprague-Dawley rats (GRF 1 μg alone or with peptide 1 50 μg at 30 min, sample 45 min); 8.4 ng/mL in the test on Male Sprague-Dawley rats (GRF 1 μg alone or with peptide 1 50 μg, 30 min (time of dosing)).
Turning to `CC[C@@H](C)[C@@H](NC(=O)[C@@H](Cc1ccccc1)NC(=O)[C@@H](Cc1c[nH]cn1)NC(C)=O)C(=O)N[C@H](CCCNC(=N)N)C(=O)N[C@H](Cc1c[nH]c2ccccc12)C(=O)N[C@H](CCC(N)=O)C(N)=O` [His Phe Ile Arg Trp Gln] (Ac-[dH][dF][dI][dR][dW][dQ]-NH2), in test [1], the “Inhibition Zone” value is on record as 16 mm.
With `CC[C@@H](C)[C@@H](NC(=O)[C@@H](Cc1ccccc1)NC(=O)[C@@H](Cc1c[nH]cn1)NC(C)=O)C(=O)N[C@H](CCCNC(=N)N)C(=O)N[C@H](Cc1c[nH]c2ccccc12)C(=O)N[C@H](Cc1ccc(O)cc1)C(N)=O` [His Phe Ile Arg Trp Tyr] (Ac-[dH][dF][dI][dR][dW][dY]-NH2), the “Inhibition Zone” value in test [1] was determined as 16 mm.
As for `CC[C@@H](C)[C@@H](NC(=O)[C@@H](Cc1c[nH]c2ccccc12)NC(=O)[C@@H](CCCNC(=N)N)NC(=O)[C@H](NC(=O)[C@@H](Cc1ccccc1)NC(=O)[C@@H](Cc1c[nH]cn1)NC(C)=O)[C@H](C)CC)C(N)=O` [His Phe Ile Arg Trp Ile] (Ac-[dH][dF][dI][dR][dW][dI]-NH2), the “Inhibition Zone” value in test [1] was determined as 16 mm.
`CC[C@@H](C)[C@@H](NC(=O)[C@@H](CCCNC(=N)N)NC(=O)[C@@H](Cc1ccccc1)NC(=O)[C@@H](Cc1c[nH]cn1)NC(C)=O)C(=O)N[C@H](Cc1c[nH]c2ccccc12)C(=O)N[C@H](Cc1ccccc1)C(N)=O` [Peptide 31, h-f-r-i-w-f] (Ac-[dH][dF][dR][dI][dW][dF]-NH2): the Ki at SSTR2 worked out at 2.5 µM.
As for `CC[C@@H](C)[C@@H](NC(=O)[C@@H](Cc1ccccc1)NC(=O)[C@@H](Cc1c[nH]cn1)NC(C)=O)C(=O)N[C@H](CCCNC(=N)N)C(=O)N[C@H](Cc1c[nH]c2ccccc12)C(=O)N[C@H](C)C(N)=O` [His Phe Ile Arg Trp Ala] (Ac-[dH][dF][dI][dR][dW][dA]-NH2), in test [1], the “Inhibition Zone” value turned out to be 15 mm.
`CC[C@@H](C)[C@@H](NC(=O)[C@@H](Cc1c[nH]c2ccccc12)NC(=O)[C@@H](Cc1c[nH]cn1)NC(C)=O)C(=O)N[C@H](CCCNC(=N)N)C(=O)N[C@H](Cc1ccccc1)C(=O)N[C@H](Cc1ccccc1)C(N)=O` [Peptide 29, h-w-i-r-f-f] (Ac-[dH][dW][dI][dR][dF][dF]-NH2) had a Ki on SSTR2 of 0.97 µM.

The values above are taken from patent US5925618A, “Peptides useful as somatostatin antagonists” (American Cyanamid Company, priority 1998, dated 1999).
